In data set [1] the test system is acetylated histone H-4 in T24 human bladder cancer cells. The data set is described as follows: Histone H4 acetylation in whole cells by immunoblots. The format is cell-based. The conditions noted are these: T-24, read-out: EC50, concentration effective for increasing the acetylated H-4 signal by 50%, 16 hours incubation, immunoblot densitometry. The procedure: T24 human bladder cancer cells growing in culture are incubated with HDAC inhibitors for 16 hours. […] of total histone protein are loaded onto SDS/PAGE and transferred to nitrocellulose membranes. Membranes are probed with polyclonal antibodies specific for acetylated histone H-4 (Upstate Biotech Inc.), followed by horse radish peroxidase conjugated secondary antibodies (Sigma). Enhanced Chemiluminescence (ECL) (Amersham) detection is performed using Kodak films (Eastman Kodak). Acetylated H-4 signal is quantified by densitometry.

For data set [2], the system named is histone deacetylase in nuclear extracts from H446 cells (pooled HDACs). The data set is described as follows: Inhibition of histone deacetylase in H446 nuclear extracts ([3H]-acetylated histone substrate). As to conditions: H446 nuclear extract. The format is biochemical, human.
Data set [3] addresses recombinant human HDAC-1 enzyme (rHDAC-1) (Homo sapiens (Human), UniProt Q13547). Put plainly: Inhibition of recombinant human HDAC-1 ([3H]-acetylated histone substrate). The data set is classed as biochemical. The conditions noted are these: Table 4, recombinant human HDAC-1.
Another data set in a line: Solubility. The format is physicochemical.
For a further data set, the target named is rHDAC-1 (Homo sapiens (Human), UniProt Q13547). The data set is described as follows: Fluorogenic Boc-Lys(Ac)-AMC deacetylase assay (Table 4a), rHDAC-1. The format is biochemical. The conditions noted are these: for IC50: Boc-Lys(Ac)-AMC substrate, PI values = IC50 at maximum % inhibition reached; for rHDAC-1 partial inhibition (maximum % inhibition reached): PI = 100% inhibition not reached. The procedure: (§1) Alternatively (Table 4a), the following protocol is used to assay the compounds of the invention. In the assay, the buffer used is 25 mM HEPES, pH 8.0, 137 mM NaCl, 2.7 mM KCl, 1 mM MgCl2 and the substrate is Boc-Lys(Ac)-AMC in a 50 mM stock solution in DMSO. The enzyme stock solution is 4.08 μg/mL in buffer. The compounds are pre-incubated (2 μl in DMSO diluted to 13 μl in buffer for transfer to assay plate) with enzyme (20 μl of 4.08 μg/ml) for 10 minutes at room temperature (35 μl pre-incubation volume). The mixture is pre-incubated for 5 minutes at room temperature. The reaction is started by bringing the temperature to 37° C. and adding […] substrate. Total reaction volume is 50 μl. […] A plate is incubated in the dark for 10 minutes at room temperature before reading (λEx=360 nm, λEm=470 nm, Cutoff filter at 435 nm).
Chain of rHDAC-1 (Q13547 whole entry): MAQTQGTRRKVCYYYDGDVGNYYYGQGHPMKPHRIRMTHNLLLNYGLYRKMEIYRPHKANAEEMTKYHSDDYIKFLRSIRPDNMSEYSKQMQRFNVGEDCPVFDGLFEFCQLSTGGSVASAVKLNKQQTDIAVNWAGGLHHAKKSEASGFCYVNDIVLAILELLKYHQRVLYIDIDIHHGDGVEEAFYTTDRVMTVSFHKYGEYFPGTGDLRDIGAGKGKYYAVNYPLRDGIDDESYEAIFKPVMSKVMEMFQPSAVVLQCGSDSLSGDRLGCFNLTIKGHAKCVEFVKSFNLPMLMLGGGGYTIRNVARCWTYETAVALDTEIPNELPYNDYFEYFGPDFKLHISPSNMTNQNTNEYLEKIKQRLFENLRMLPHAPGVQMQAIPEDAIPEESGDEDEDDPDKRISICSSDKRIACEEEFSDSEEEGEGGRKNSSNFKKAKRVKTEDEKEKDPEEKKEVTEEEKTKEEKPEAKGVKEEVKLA

The target in another data set is rHDAC-8 (Homo sapiens (Human), UniProt Q9BY41). Put plainly: Fluorogenic Boc-Lys(Ac)-AMC deacetylase assay (Table 4a), rHDAC-8. The data set is classed as biochemical. As to conditions: for IC50: Boc-Lys(Ac)-AMC substrate, PI values = IC50 at maximum % inhibition reached; for rHDAC-8 partial inhibition (maximum % inhibition reached): PI = 100% inhibition not reached. The procedure: as §1
Chain of rHDAC-8 (Q9BY41 whole entry): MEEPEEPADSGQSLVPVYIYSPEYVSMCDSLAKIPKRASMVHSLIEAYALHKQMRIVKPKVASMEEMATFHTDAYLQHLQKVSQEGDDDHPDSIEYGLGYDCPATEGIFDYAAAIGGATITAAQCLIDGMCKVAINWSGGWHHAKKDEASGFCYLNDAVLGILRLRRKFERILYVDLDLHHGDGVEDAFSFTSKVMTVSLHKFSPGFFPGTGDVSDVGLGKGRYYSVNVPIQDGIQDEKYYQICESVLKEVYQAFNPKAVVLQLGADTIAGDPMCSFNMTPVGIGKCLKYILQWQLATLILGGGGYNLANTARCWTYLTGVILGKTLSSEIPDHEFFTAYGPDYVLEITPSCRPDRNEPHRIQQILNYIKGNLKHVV

[4] abbreviates: Milli-Q purified water, read-out: Solubility Water.
The mark [5] stands for this setting: pH 2, simulated gastric fluid, read-out: Solubility pH 2.

≈ marks a conversion by molar mass, not a printed value. Where two headings read alike, the source gives them in different places.

As a reminder, the IC50 is the concentration that gives 50% inhibition. A word on the solubility: it is the dissolved amount per volume that the medium holds.

Chain of recombinant human HDAC-1 enzyme (rHDAC-1) (Q13547 whole entry): as the sequence (Q13547 whole entry) above

With `O=C(/C=C/c1ccc(NS(=O)(=O)c2ccccc2)cc1)NO` [Compound 36, N-Hydroxy-3-[4-(benzenesulfonylamino)-phenyl]-2-propenamide], the EC50 in data set [1] was found to be 5000 nM. In addition, in data set [2], the IC50 was 500 nM.

With `COc1ccc(S(=O)(=O)Nc2ccc(/C=C/C(=O)NO)cc2)cc1OC` [Compound 90], the EC50 in data set [1] turned out to be 1000 nM. In addition, the half-maximal inhibitory concentration (IC50) in data set [2] is 400 nM.

On to `CN(C)c1cccc2c(S(=O)(=O)Nc3ccc(/C=C/C(=O)NO)cc3)cccc12` [Compound 97], for which the half-maximal inhibitory concentration (IC50) was 800 nM in data set [2] and 280 nM in data set [3].

With `O=C(/C=C/c1ccc(NS(=O)(=O)Cc2ccccc2)cc1)NO` [Compound 100], the IC50 worked out at 800 nM in data set [2] and 750 nM in data set [3].

Turning to `O=C(/C=C/c1ccc(NS(=O)(=O)c2ccc3oc4ccccc4c3c2)cc1)NO` [Compound 101], the IC50 came out at 300 nM in data set [2] and 40 nM in data set [3].

With `O=C(/C=C/c1ccc(NS(=O)(=O)c2ccc(-c3cccs3)s2)cc1)NO` [Compound 103], the half-inhibitory concentration (IC50) came out at 700 nM in data set [2] and 50 nM in data set [3].

For `O=C(/C=C/c1ccc(NS(=O)(=O)c2ccc(Cl)cc2Cl)cc1)NO` [Compound 106], the IC50 in data set [2] was 800 nM; in data set [3], 300 nM.

As to `Nc1ccccc1NC(=O)/C=C/c1ccc(NS(=O)(=O)c2cccc3ccccc23)cc1` [Compound 107], in data set [1], the EC50 stood at 5000 nM. Besides, the “pooled HDACs percent inhibition” value in data set [2] (@ 1 μM) is reported as 0% @ 1 μM. The 50% inhibitory concentration (IC50) in data set [3] is 5000 nM.

With `Cc1ccc(S(=O)(=O)Nc2ccc(/C=C/C(=O)NO)cc2)cc1` [Compound 108], in data set [2] (@ 1 μM), the “pooled HDACs percent inhibition” value stood at 10% @ 1 μM. In addition, the IC50 in data set [3] amounted to 300 nM.

`O=C(/C=C/c1ccc(NS(=O)(=O)c2ccc(Cl)c(Cl)c2)cc1)NO` [Compound 109]: the “pooled HDACs percent inhibition” value in data set [2] (@ 1 μM) was found to be 32% @ 1 μM. The IC50 in data set [3] worked out at 120 nM.

In the case of `CC(C)c1cc(C(C)C)c(S(=O)(=O)Nc2ccc(/C=C/C(=O)NO)cc2)c(C(C)C)c1` [Compound 110], the IC50 stood at 700 nM in data set [2] and 550 nM in data set [3].

As for `O=C(/C=C/c1ccc(NS(=O)(=O)c2cc(Cl)cc(Cl)c2O)cc1)NO` [Compound 111], the IC50 in data set [2] was determined as 400 nM; in data set [3], 95 nM.

Consider `COc1ccc(S(=O)(=O)Nc2ccc(/C=C/C(=O)NO)cc2)cc1` [Compound 113], for which the “pooled HDACs percent inhibition” value in data set [2] (@ 1 μM) is recorded as 46% @ 1 μM. Besides, the IC50 in data set [3] came out at 200 nM.

On to `O=C(/C=C/c1ccc(NS(=O)(=O)c2ccc(-c3ccccc3)cc2)cc1)NO` [Compound 120], for which, in data set [1], the EC50 was 1000 nM. The values for the 50% inhibitory concentration (IC50) in data set [2] and in data set [3] were 120 nM and 10 nM, respectively.

With `COc1ccc(S(=O)(=O)Nc2ccc(/C=C/C(=O)Nc3ccccc3N)cc2)cc1` [Compound 122], the EC50 in data set [1] was found to be 2000 nM.

Regarding `CC(C)(N)C(=O)ONC(=O)Cc1ccc(CCCCc2ccccc2)cc1.Cl` [Compound 174f, N-(2-amino-2-methylpropanoyloxy)-2-(4-(4-phenylbutyl)phenyl)acetamide hydrochloride], the results for the solubility in the data set “Solubility” (setting [4]) and in the data set “Solubility” (setting [5]) were 5 µM and 4 µM, respectively.

As for `Cl.NCC1(C(=O)ONC(=O)Cc2ccc(CCCCc3ccccc3)cc2)CC1` [Compound 174g, N-(1-(aminomethyl)cyclopropanecarbonyloxy)-2-(4-(4-phenylbutyl)phenyl)acetamide hydrochloride], the values for the solubility in “Solubility” (setting [4]) and in “Solubility” (setting [5]) were 195 µM and 132 µM, respectively.

Take `Nc1ccccc1NC(=O)c1ccc(CC(=O)c2ccccc2)o1` [Compound 178]: in data set [2] (@ 20 μM), the “pooled HDACs percent inhibition” value is given as 2% @ 20 μM. For the same compound, in data set [3], the half-inhibitory concentration (IC50) was more than 20000 nM.

Turning to `O=C(Cc1ccc(CCCCc2cc(F)c(F)cc2F)cc1)NO` [Compound 179, N-hydroxy-2-(4-(4-(2,4,5-trifluorophenyl)butyl)phenyl)acetamide], the results for the 50% inhibitory concentration (IC50) against rHDAC-1 and on rHDAC-8 were 500 nM and 530 nM, respectively.

Turning to `O=C(Cc1ccc(CCCCc2ccc(C(F)(F)F)cc2)cc1)NO` [Compound 182, N-hydroxy-2-(4-(4-(4-(trifluoromethyl)phenyl)butyl)phenyl)acetamide], on rHDAC-1, the half-inhibitory concentration (IC50) worked out at 700 nM and the “rHDAC-1 partial inhibition (maximum % inhibition reached)” value is reported as 64%. Moreover, on rHDAC-8, the concentration for half-maximal inhibition (IC50) is 1300 nM and the “rHDAC-8 partial inhibition (maximum % inhibition reached)” value was determined as 74%.

Turning to `O=C(Cc1ccc(CCCCc2ccc3[nH]ccc3c2)cc1)NO` [Compound 183, 2-(4-(4-(1H-indol-5-yl)butyl)phenyl)-N-hydroxyacetamide], the 50% inhibitory concentration (IC50) came out at 380 nM against rHDAC-1 and 410 nM against rHDAC-8.

Compound `O=C(Cc1ccc(CCCCc2cccc(C(F)(F)F)c2)cc1)NO` [Compound 184, N-hydroxy-2-(4-(4-(3-(trifluoromethyl)phenyl)butyl)phenyl)acetamide] yielded an IC50 at rHDAC-1 of 930 nM. For the same compound, at rHDAC-8, half-maximal inhibition (IC50) was put at 400 nM and the “rHDAC-8 partial inhibition (maximum % inhibition reached)” value is given as 79%.

`O=C(Cc1ccc(CCCCc2ccccc2C(F)(F)F)cc1)NO` [Compound 185, N-hydroxy-2-(4-(4-(2-(trifluoromethyl)phenyl)butyl)phenyl)acetamide]: the half-inhibitory concentration (IC50) on rHDAC-1 was found to be 840 nM; at rHDAC-8, 610 nM.

As for `O=C(Cc1ccc(CCCCc2ccc3c(c2)OCO3)cc1)NO` [Compound 187, 2-(4-(4-(benzo[d][1,3]dioxol-5-yl)butyl)phenyl)-N-hydroxyacetamide], on rHDAC-1, the midpoint of inhibition, the IC50, lay at 200 nM and the “rHDAC-1 partial inhibition (maximum % inhibition reached)” value stood at 62%. The compound further returned an IC50 against rHDAC-8 of 210 nM.

For the compound `O=C(Cc1ccc(CCCCc2ccccc2)cc1)NO` [H], the solubility in “Solubility” (setting [4]) and in the data set “Solubility” (setting [5]) was 3 µM (≈ 0.85 µg/mL) each time.

These data come from patent publication US8796330B2, “Inhibitors of histone deacetylase and prodrugs thereof” (Methylgene Inc., priority 2006, dated 2014).
